The record followed here is patent US20180207099A1, “NON-[…] FOR THE MIC[…] DIGOXIN” (priority 2015, published 2018).

The data set in a line: Particle size of micronized digoxin obtained by the non-mechanical process. The note with it: for >90% of the particles (number distribution); digoxin precipitated per Example 1. Type of data set: physicochemical. The source says:
The digoxin thus obtained has a high purity and is ready to be incorporated in the usual pharmaceutical formulations, typically tablets; it has particle size of 20-30 micrometers for at least 90% of the particles, and is exempt from degradation products, as evident by a wholly neutral colour, and further confirmable analytically. In the present invention, the particle size distribution is meant as “number distribution” (thus not “volume distribution” or “mass distribution”); accordingly, any expressions of the type “x-y micrometers for at least m % of the particles” describes a particle distribution characterized in that at least m % of the number of particles making up the product have a size comprised between x and y micrometers; relevant particle size values can be measured by usual techniques, including laser diffraction, dynamic light scattering, dynamic image analysis, suitably equipped with data processing systems. The obtained digoxin can be formulated with common excipients. Suitable excipients are cellulose products like microcrystalline cellulose, cellulose ethers like methylcellulose, ethylcellulose, hydroxyethylcellulose, crosslinked polymers (e.g. polyplasdone XL, hyaluronic acid or alginic acid cross-linked with urea), gums from plants, etc. Common diluents like mannitol, fructose, as well as compression aids like magnesium stearate, can also be used. […]

SMILES strings stand for the structures.

Consider `C[C@H]1O[C@@H](O[C@H]2[C@@H](O)C[C@H](O[C@H]3[C@@H](O)C[C@H](O[C@H]4CC[C@@]5(C)[C@H](CC[C@@H]6[C@@H]5C[C@@H](O)[C@]5(C)[C@@H](C7=CC(=O)OC7)CC[C@]65O)C4)O[C@@H]3C)O[C@@H]2C)C[C@H](O)[C@@H]1O` [digoxin], for which the particle size is listed as 20-30 micrometers.
